Data set [1] relates to Klebsiella pneumoniae. Kind of data set: Antibacterial activity against Klebsiella pneumoniae ATCC 10031 assessed as reduction in bacterial growth incubated for 24 hrs by CLSI broth microdilution method. The class given is functional.
For data set [2], the system named is Pseudomonas aeruginosa. Kind of data set: Antibacterial activity against Pseudomonas aeruginosa ATCC 9027 assessed as reduction in bacterial growth incubated for 24 hrs by CLSI broth microdilution method. It is filed as functional.
Data set [3] relates to Escherichia coli. Kind of data set: Antibacterial activity against Escherichia coli ATCC 25922 assessed as reduction in bacterial growth incubated for 24 hrs by CLSI broth microdilution method. It is filed as functional. (In general: Dilution methods test growth across graded concentrations, often in twofold steps.)
For data set [4], the system named is Staphylococcus aureus. Briefly: Antibacterial activity against Staphylococcus aureus ATCC 6538 incubated for 24 hrs by CLSI broth microdilution method. The class given is functional.
Data set [5] has as its system Staphylococcus epidermidis. Briefly: Antibacterial activity against Staphylococcus epidermidis assessed as reduction in bacterial growth incubated for 24 hrs by CLSI broth microdilution method. It is filed as functional.
Data set [6] is described as follows: Antibacterial activity against […] resistant Moraxella sp.764 clinical isolate assessed as reduction in bacterial growth incubated for 24 hrs by CLSI broth microdilution method. The class given is functional. As to conditions: Moraxella catarrhalis.
Data set [7] relates to Staphylococcus aureus. Briefly: Bactericidal activity against Staphylococcus aureus ATCC 29213 assessed as reduction in bacterial growth incubated for 24 hrs followed by replating on MH broth and further incubated for 24 hrs by CLSI broth microdilution method. Conditions: time 48 hrs. It is filed as functional.
Data set [8] deals with Staphylococcus aureus. Briefly: Antibacterial activity against Staphylococcus aureus ATCC 29213 assessed as reduction in bacterial growth incubated for 24 hrs by CLSI broth microdilution method. The class given is functional.
In data set [9] the test system is Staphylococcus aureus. Briefly: Antibacterial activity against methicillin- resistant Staphylococcus aureus 967 clinical isolate assessed as reduction in bacterial growth incubated for 24 hrs by CLSI broth microdilution method. The class given is functional.
Data set [10] deals with Klebsiella pneumoniae. Kind of data set: Bactericidal activity against Klebsiella pneumoniae ATCC 1813 assessed as reduction in bacterial growth incubated for 24 hrs followed by replating on MH broth and further incubated for 24 hrs by CLSI broth microdilution method. The class given is functional.
The next data set deals with Pseudomonas. Kind of data set: Antibacterial activity against methicillin- resistant Pseudomonas spp. clinical isolate 6 assessed as reduction in bacterial growth incubated for 24 hrs by CLSI broth microdilution method. It is filed as functional.
The test system of data set [11] is Staphylococcus intermedius. Briefly: Antibacterial activity against methicillin- resistant Staphylococcus intermedius 1143 clinical isolate assessed as reduction in bacterial growth incubated for 24 hrs by CLSI broth microdilution method. The class given is functional.
In data set [12] the test system is Klebsiella sp. Kind of data set: Antibacterial activity against […] resistant Klebsiella sp. clinical isolate 11 assessed as reduction in bacterial growth incubated for 24 hrs by CLSI broth microdilution method. It is filed as functional.
Data set [13] deals with Klebsiella pneumoniae. Kind of data set: Antibacterial activity against Klebsiella pneumoniae ATCC 1813 assessed as reduction in bacterial growth incubated for 24 hrs by CLSI broth microdilution method. The class given is functional.
Data set [14] deals with Staphylococcus aureus. Briefly: Antibacterial activity against methicillin- resistant Staphylococcus aureus 2020 clinical isolate assessed as reduction in bacterial growth incubated for 24 hrs by CLSI broth microdilution method. It is filed as functional.
The nature of data set [15]: Antibacterial activity against […] resistant Moraxella sp.765 clinical isolate assessed as reduction in bacterial growth incubated for 24 hrs by CLSI broth microdilution method. The class given is functional. As to conditions: Moraxella catarrhalis.
Data set [16] concerns Staphylococcus aureus. Briefly: Antibacterial activity against methicillin- resistant Staphylococcus aureus 983 clinical isolate assessed as reduction in bacterial growth incubated for 24 hrs by CLSI broth microdilution method. It is filed as functional.
Data set [17] concerns Staphylococcus haemolyticus. Briefly: Antibacterial activity against methicillin- resistant Staphylococcus haemolyticus 837 assessed as reduction in bacterial growth incubated for 24 hrs by CLSI broth microdilution method. The class given is functional.
Data set [18] deals with Acinetobacter. Briefly: Antibacterial activity against […] resistant Acinetobacter spp. clinical isolate 3 assessed as reduction in bacterial growth incubated for 24 hrs by CLSI broth microdilution method. It is filed as functional.
In data set [19] the test system is Staphylococcus aureus. Briefly: Antibacterial activity against methicillin- resistant Staphylococcus aureus 25 clinical isolate assessed as reduction in bacterial growth incubated for 24 hrs by CLSI broth microdilution method. It is filed as functional.
Data set [20] deals with Staphylococcus epidermidis. Briefly: Bactericidal activity against Staphylococcus epidermidis assessed as reduction in bacterial growth incubated for 24 hrs followed by replating on MH broth and further incubated for 24 hrs by CLSI broth microdilution method. It is filed as functional.
For data set [21], the system named is Acinetobacter. Briefly: Antibacterial activity against […] resistant Acinetobacter spp. clinical isolate 5 assessed as reduction in bacterial growth incubated for 24 hrs by CLSI broth microdilution method. The class given is functional.
Data set [22] relates to Acinetobacter. Briefly: Antibacterial activity against […] resistant Acinetobacter spp. clinical isolate 1 assessed as reduction in bacterial growth incubated for 24 hrs by CLSI broth microdilution method. It is filed as functional.
Data set [23] can be described thus: Antibacterial activity against […] resistant Moraxella sp.829 clinical isolate assessed as reduction in bacterial growth incubated for 24 hrs by CLSI broth microdilution method. As to conditions: Moraxella catarrhalis. The class given is functional.
Data set [24] concerns Klebsiella sp. Briefly: Antibacterial activity against […] resistant Klebsiella sp. clinical isolate 12 assessed as reduction in bacterial growth incubated for 24 hrs by CLSI broth microdilution method. The class given is functional.
A further data set has as its system Proteus sp. Briefly: Antibacterial activity against […] resistant Proteus sp. clinical isolate 17 assessed as reduction in bacterial growth incubated for 24 hrs by CLSI broth microdilution method. It is filed as functional. Conditions: Proteus sp. (in: enterobacteria).
The subject of data set [25] is Pseudomonas aeruginosa. Briefly: Antibacterial activity against Pseudomonas aeruginosa ATCC 27853 assessed as reduction in bacterial growth incubated for 24 hrs by CLSI broth microdilution method. It is filed as functional. As to conditions: Pseudomonas aeruginosa, ATCC 27853, 24 h, read-out: MIC.
The test system of data set [26] is Escherichia coli. Kind of data set: Bactericidal activity against Escherichia coli ATCC 25922 assessed as reduction in bacterial growth incubated for 24 hrs followed by replating on MH broth and further incubated for 24 hrs by CLSI broth microdilution method. It is filed as functional.
For data set [27], the system named is Escherichia coli. Briefly: Bactericidal activity against Escherichia coli ATCC 25922. The class given is functional.
The test system of data set [28] is Staphylococcus aureus. Briefly: Antibacterial activity against Staphylococcus aureus ATCC 29213 by CLSI broth microdilution method. It is filed as functional.
The test system of data set [29] is Staphylococcus aureus. Briefly: Bactericidal activity against Staphylococcus aureus ATCC 29213. The class given is functional.
Data set [30] in a line: Selectivity index, ratio of CC50 for human HSF cells to MIC for Staphylococcus aureus ATCC 29213. It is filed as toxicity.
Data set [31] is described as follows: Selectivity index, ratio of CC50 for human HSF cells to MIC for Staphylococcus epidermidis. It is filed as toxicity.
Data set [32] is described as follows: Selectivity index, ratio of CC50 for human HSF cells to MIC for Bacillus subtilis 168. It is filed as toxicity.
The subject of another data set is Bacillus subtilis. Briefly: Bactericidal activity against Bacillus subtilis 168 assessed as reduction in bacterial growth incubated for 24 hrs followed by replating on MH broth and further incubated for 24 hrs by CLSI broth microdilution method. It is filed as functional. As to conditions: Bacillus subtilis, 168, 24 h.
Where [33] appears, read: Escherichia coli, ATCC 25922, 24 h, read-out: MIC.
[34] abbreviates: Staphylococcus aureus, ATCC 29213, read-out: MBC.
Where [35] appears, read: Staphylococcus epidermidis, read-out: MBC.

These results are taken from ChEMBL document CHEMBL4673355, “Thiacalixarene based quaternary ammonium salts as promising antibacterial agents” (Bioorg Med Chem, 2021).

Structures are written as SMILES. “And” between values parts separate entries of the source, which are not always exact repeats. Identical values can stand only once.

Regarding `CCCOc1c2cc(C[n+]3ccn(C)c3)cc1Cc1cc(C[n+]3ccn(C)c3)cc(c1OCCC)Cc1cc(C[n+]3ccn(C)c3)cc(c1OCCC)Cc1cc(C[n+]3ccn(C)c3)cc(c1OCCC)C2.[Cl-].[Cl-].[Cl-].[Cl-]`, the MIC (in general, the lowest concentration that inhibits growth of the organism) with Klebsiella pneumoniae [1] was no more than 10 µg/mL; in the data set on Pseudomonas aeruginosa [2], 50 µg/mL; with Escherichia coli [3] (setting [33]) it was no more than 10 µg/mL; in the data set on Staphylococcus aureus [4], no more than 10 µg/mL.

On to `CC(C)(C)c1cc2c(OCC(=O)NCCC[N+](C)(C)Cc3ccccc3)c(c1)Sc1cc(C(C)(C)C)cc(c1OCC(=O)NCCC[N+](C)(C)Cc1ccccc1)Sc1cc(C(C)(C)C)cc(c1OCC(=O)NCCC[N+](C)(C)Cc1ccccc1)Sc1cc(C(C)(C)C)cc(c1OCC(=O)NCCC[N+](C)(C)Cc1ccccc1)S2.[Cl-].[Cl-].[Cl-].[Cl-]`, for which the minimal inhibitory concentration (MIC) in data set [5] is 2 µg/mL; in data set [5] (Staphylococcus epidermidis, read-out: MIC), 4 µg/mL; in [6] it was 64 µg/mL; in the data set on Staphylococcus aureus [8], 4 µg/mL; in the data set with Staphylococcus aureus [8] (Staphylococcus aureus, ATCC 29213, 24 h, read-out: MIC) it was 4 µg/mL; with Staphylococcus aureus [9] it was 64 µg/mL. The minimal inhibitory concentration (MIC) was 64 µg/mL in the data set on Pseudomonas; 16 µg/mL in data set [11]; greater than 64 µg/mL in the data set on Klebsiella sp. [12]; greater than 64 µg/mL in the data set with Klebsiella pneumoniae [13] (24 h); 32 µg/mL in the data set on Klebsiella pneumoniae [13] (Klebsiella pneumoniae, ATCC 1813, 24 h, read-out: MIC); 64 µg/mL in the data set with Staphylococcus aureus [14]. The MIC is 64 µg/mL in [15]; 32 µg/mL with Escherichia coli [3] (24 h); greater than 64 µg/mL with Escherichia coli [3] (setting [33]); 64 µg/mL with Staphylococcus aureus [16]; 64 µg/mL in data set [17]; 64 µg/mL in the data set with Acinetobacter [18]. Besides, the MIC with Staphylococcus aureus [19] is 16 µg/mL; in the data set with Acinetobacter [21] it was 64 µg/mL; in the data set with Acinetobacter [22], 64 µg/mL; in [23] it was 64 µg/mL; in the data set on Klebsiella sp. [24] it was 64 µg/mL; in the data set on Proteus sp. it was greater than 64 µg/mL. Besides, the MIC in the data set on Pseudomonas aeruginosa [25] was greater than 64 µg/mL. The MBC (in general, the smallest concentration meeting the test's criterion for killing) in the data set on Staphylococcus aureus [7] (setting [34]) was 64 µg/mL; in the data set with Staphylococcus aureus [7] it was 64 µg/mL; in the data set on Klebsiella pneumoniae [10], 32 µg/mL; in data set [20], 16 µg/mL; in [20] (setting [35]) it was 32 µg/mL; in the data set on Escherichia coli [26] it was 64 µg/mL.

With `CCCCCCCCOc1c2cc(C[N+](C)(C)CCN)cc1Cc1cc(C[N+](C)(C)CCN)cc(c1OCCCCCCCC)Cc1cc(C[N+](C)(C)CCN)cc(c1OCCCCCCCC)Cc1cc(C[N+](C)(C)CCN)cc(c1OCCCCCCCC)C2.[Cl-].[Cl-].[Cl-].[Cl-]`, the MIC in the data set on Klebsiella pneumoniae [1], in the data set with Pseudomonas aeruginosa [2], with Escherichia coli [3] (setting [33]) and with Staphylococcus aureus [4] was greater than 1000 µg/mL in each case.

For the compound `CCCOc1c2cc(C[N+](C)(C)C)cc1Cc1cc(C[N+](C)(C)C)cc(c1OCCC)Cc1cc(C[N+](C)(C)C)cc(c1OCCC)Cc1cc(C[N+](C)(C)C)cc(c1OCCC)C2.[Cl-].[Cl-].[Cl-].[Cl-]`, the MIC in the data set on Escherichia coli [3] (setting [33]) and with Staphylococcus aureus [28] was 16 µg/mL each time. The MBC with Escherichia coli [27] and in the data set on Staphylococcus aureus [29] was 16 µg/mL in each case.

As to `CCCC[N+](C)(C)CCCNC(=O)COc1c2cc(C(C)(C)C)cc1Sc1cc(C(C)(C)C)cc(c1OCC(=O)NCCC[N+](C)(C)CCCC)Sc1cc(C(C)(C)C)cc(c1OCC(=O)NCCC[N+](C)(C)CCCC)Sc1cc(C(C)(C)C)cc(c1OCC(=O)NCCC[N+](C)(C)CCCC)S2.[Cl-].[Cl-].[Cl-].[Cl-]`, the Ratio in data set [30] was 19; in data set [31], 19; in [32] it was 23 and 9. Moreover, the selectivity ratio in data set [30] (HSF cells) and in [31] (HSF cells) was 11 in each case. Moreover, the values for the MBC (in the data set on Staphylococcus aureus [7] (setting [34]); in data set [20] (setting [35]); in the data set on Bacillus subtilis) were 16 µg/mL, 8 µg/mL and 16 µg/mL, respectively. For the same compound, the MIC with Escherichia coli [3] (24 h) is 64 µg/mL; with Escherichia coli [3] (setting [33]) it was greater than 64 µg/mL; with Pseudomonas aeruginosa [25] it was greater than 64 µg/mL.
